In paper PMC11087803 (Proceedings of the National Academy of Sciences of the …, 2024):

What was measured:
[1] = Metabolic stability assay in liver microsomes; format: in vitro ADME, mouse
[2] = Metabolic stability assay in liver microsomes; format: in vitro ADME, human

For Cc1nnc2n1-c1ccc(Cl)cc1C(c1ccccc1)=NC2 [Alprazolam], the “MLM t1/2” value ([1]; mouse liver microsomes 0.5 mg protein/mL, 2.0 μM compound, 37°C) was 4.93 h, the microsomal CLint at 2 μM ([1]; mouse, liver microsomes) was 5 µL/min/mg and the “HLM t1/2” value ([2]; human liver microsomes 0.5 mg protein/mL, 2.0 μM compound, 37°C) was 13.9 h. The microsomal CLint at 2 μM ([2]; human, liver microsomes) was 2 µL/min/mg.
